Laboratory results reported in patent publication US10093664B2, “Bicyclo[1.1.1]pentane inhibitors of dual leucine zipper (DLK) kinase for the treatment of disease” (priority 2016, dated 2018).
Where two headings read alike, the source gives them in different places.

Assays:
human DLK [1] = molecular target: T1, human DLK (Homo sapiens (Human), UniProt Q12852); assay: biochemical; type: binding
Experimental: The DLK dissociation constants (Kd) have been determined in the KINOMEscan KdELECT Service at DiscoveRx.
A fusion protein of full length of human DLK (amino acids 1-859) and the DNA binding domain of NFkB was expressed in transiently transfected HEK293 cells. From these HEK 293 cells, extracts were prepared in M-PER extraction buffer (Pierce) in the presence of Protease Inhibitor Cocktail Complete (Roche) and Phosphatase Inhibitor Cocktail Set II (Merck) per manufacturers' instructions. The DLK fusion protein was labeled with a chimeric double-stranded DNA tag containing the NFkB binding site (5′-[sequence]-3′) fused to an amplicon for qPCR readout, which was added directly to the expression extract (the final concentration of DNA-tag in the binding reaction is 0.1 nM).
The liganded beads were blocked with excess biotin and washed with blocking buffer (SeaBlock (Pierce), 1% BSA, 0.05% Tween 20, 1 mM DTT) to remove unbound ligand and to reduce nonspecific binding.
Extracts were used directly in binding assays without any enzyme purification steps at a ≥10,000-fold overall stock dilution (final DNA-tagged enzyme concentration <0.1 nM). Extracts were loaded with DNA-tag and diluted into the binding reaction in a two step process. First extracts were diluted 1:100 in 1× binding buffer (PBS/0.05% Tween 20/10 mM DTT/0.1% BSA/2 μg/ml sonicated salmon sperm DNA) containing 10 nM DNA-tag. This dilution was allowed to equilibrate at room temperature for 15 minutes and then subsequently diluted 1:100 in 1× binding buffer. Test compounds were prepared as 111× stocks in 100% DMSO. Kds were determined using an 11-point 3-fold compound dilution series with three DMSO control points. […] The compounds were then diluted directly into the assays such that the final concentration of DMSO was 0.9%. All reactions performed in polypropylene 384-well plates. Each was a final volume of 0.02 mL. Assays were incubated with shaking for 1 hour at room temperature. Then the beads were pelleted and washed with wash buffer (1×PBS, 0.05% Tween 20) to remove displaced kinase and test compound. […] The kinase concentration in the eluates was measured by qPCR. qPCR reactions were assembled by adding 2.5 μL of kinase eluate to 7.5 μL of qPCR master mix containing 0.15 μM amplicon primers and 0.15 μM amplicon probe. The qPCR protocol consisted of a 10 minute hot start at 95° C., followed by 35 cycles of 95° C. for 15 seconds, 60° C. for 1 minute.
Test compounds were prepared as 11× stocks in 100% DMSO. Kds were determined using an 11-point 3-fold compound dilution series with three DMSO control points. […] The compounds were then diluted directly into the assays such that the final concentration of DMSO was 0.9%. The Kds were determined using a compound top concentration of 30,000 nM. Kd measurements were performed in duplicate.
Binding constants (Kds) were calculated with a standard dose-response curve using the Hill equation:
The Hill Slope was set to −1.

human DLK [2] = molecular target: T1, human DLK; assay: cell-based; conditions: p-cJun (Ser63)
Experimental: HEK293 cells stably transfected with a Dox-inducible human DLK were plated into a 384-well plate in 20 μl (40,000 cells/well) of DMEM medium (without phenol red) containing 10% fetal bovine serum, 1.5 μg/ml doxycycline and 1 μg/ml puromycin. The cells as negative control were grown in the absence of doxycycline. The plate was incubated at 37° C., 5% CO2 for 20 h, before DMSO (control) or compounds diluted in medium were added. The cells were incubated at 37° C. for an additional 5 h, followed by lysis and the addition detection antibodies from p-cJun (Ser63) cellular assay kit (Cisbio) per manufacturer protocol. The standard dose response curves were fitted by Genedata Screener software using the variable-slope model: Signal=Signalnegative control+(SignalDMSO control−Signalnegative control)/(1+(IC50/Dose)^Hill slope). Only signal and dose in the equation were treated as known values.

[3] = Table 2b DLK activity (global), read-out: Kd
[4] = Table 2b (global), additional assay runs on multiple batches, includes Table 2a data in the averaging, HEK293, read-out: Cell IC50

SMILES: FCCn1ccc2ncc(-c3cn(C45CC(N6CCOCC6)(C4)C5)c(C4CC4)n3)cc21 [Example 21, 4-(3-(2-cyclopropyl-4-(1-(2-fluoroethyl)-H-pyrrolo[3,2-b]pyridin-6-yl)-H-imidazol-1-yl)bicyclo[1.1.1]pentan-1-yl)morpholine, bis(2,2,2-trifluoroacetate)]
- Kd (human DLK [1]; [3]): 330 nM
- IC50 (human DLK [2]; [4]): 5870 nM

SMILES: CN1CCN(C23CC(n4cc(-c5cnc(N)c(C(F)(F)F)c5)nc4C4CC4)(C2)C3)CC1 [Example 75, 5-(2-cyclopropyl-1-(3-(4-methylpiperazin-1-yl)bicyclo[1.1.1]pentan-1-yl)-1H-imidazol-4-yl)-3-(trifluoromethyl)pyridin-2-amine]
- Kd (human DLK [1]; [3]): 7.5 nM
- IC50 (human DLK [2]; [4]): 256 nM

SMILES: CC(C)(C)Cc1nc(-c2cnc(N)c(C(F)(F)F)c2)cn1C12CC(N3CCOCC3)(C1)C2 [Example 40, 5-(1-(3-morpholinobicyclo[1.1.1]pentan-1-yl)-2-neopentyl-1H-imidazol-4-yl)-3-(trifluoromethyl)pyridin-2-amine]
- Kd (human DLK [1]; [3]): 66 nM
- IC50 (human DLK [2]; [4]): 2460 nM

SMILES: CC(C)C(O)c1nc(-c2cnc(N)c(OC(F)(F)F)c2)cn1C12CC(C1)C2 (centres unmarked) [Example 57, 1-(4-(6-amino-5-(trifluoromethoxy)pyridin-3-yl)-1-(bicyclo[1.1.1]pentan-1-yl)-1H-imidazol-2-yl)-2-methylpropan-1-ol]
- Kd (human DLK [1]; [3]): 0.62 nM
- IC50 (human DLK [2]; [4]): 38.6 nM

SMILES: CC(O)c1nc(-c2cnc(N)c(OC(F)(F)F)c2)cn1C12CC(C1)C2 (centres unmarked) [Example 55, 1-(4-(6-amino-5-(trifluoromethoxy)pyridin-3-yl)-1-(bicyclo[1.1.1]pentan-1-yl)-1H-imidazol-2-yl)ethan-1-ol]
- Kd (human DLK [1]; [3]): 14 nM
- IC50 (human DLK [2]; [4]): 443 nM

SMILES: Nc1ncc(-c2cn(C34CC(N5CCOCC5)(C3)C4)c(C3CC3)n2)cc1C(F)(F)F [Example 4]
- Kd (human DLK [1]; [3]): 8.3 nM
- Kd (human DLK [1]; read-out: Avg DLK Kd): 13 nM
- IC50 (human DLK [2]; Table 2a, HEK293 cells, Dox-inducible human DLK, 5 h compound, read-out: Avg Phospho-cJun Cell IC50): 366 nM
- IC50 (human DLK [2]; [4]): 400 nM

SMILES: CC(C)c1nc(-c2cnc3ccn(C(C)c4ccccn4)c3c2)cn1C12CC(N3CCOCC3)(C1)C2 (centres unmarked) [Example 28, 4-(3-(2-isopropyl-4-(1-(1-(pyridin-2-yl)ethyl)-1H-pyrrolo[3,2-b]pyridin-6-yl)-1H-imidazol-1-yl)bicyclo[1.1.1]pentan-1-yl)morpholine]
- Kd (human DLK [1]; [3]): 2.9 nM
- IC50 (human DLK [2]; [4]): 148 nM

SMILES: Nc1ncc(-c2cn(C34CC(C3)C4)c([C@@H](O)C(F)(F)F)n2)cc1C(F)(F)F (single isomer, unassigned) [Example 6b]
- Kd (human DLK [1]; [3]): 0.74 nM
- IC50 (human DLK [2]; [4]): 38.7 nM

SMILES: C[C@H](O)c1nc(-c2cnc(N)c(C(F)(F)F)c2)cn1C12CC(C1)C2 [Example 33, (S)-1-(4-(6-amino-5-(trifluoromethyl)pyridin-3-yl)-1-(bicyclo[1.1.1]pentan-1-yl)-1H-imidazol-2-yl)ethan-1-ol]
- Kd (human DLK [1]; [3]): 9.7 nM
- IC50 (human DLK [2]; [4]): 207 nM

SMILES: CS(=O)(=O)N1CCN(C23CC(n4cc(-c5cnc(N)c(OC(F)(F)F)c5)nc4C4CC4)(C2)C3)CC1 [Example 16, 5-(2-cyclopropyl-1-(3-(4-(methylsulfonyl)piperazin-1-yl)bicyclo[1.1.1]pentan-1-yl)-1H-imidazol-4-yl)-3-(trifluoromethoxy)pyridin-2-amine]
- Kd (human DLK [1]; [3]): 24 nM
- IC50 (human DLK [2]; [4]): 457 nM

SMILES: CC(C)c1nc(-c2cnc(N)c(OC(F)F)c2)cn1C12CC(N3CCOCC3)(C1)C2 [Example 38, 3-(difluoromethoxy)-5-(2-isopropyl-1-(3-morpholinobicyclo[1.1.1]pentan-1-yl)-1H-imidazol-4-yl)pyridin-2-amine]
- Kd (human DLK [1]; [3]): 19 nM
- IC50 (human DLK [2]; [4]): 709 nM

SMILES: CCC(O)c1nc(-c2cnc(N)c(OC(F)(F)F)c2)cn1C12CC(C1)C2 (centres unmarked) [Example 54, 1-(4-(6-amino-5-(trifluoromethoxy)pyridin-3-yl)-1-(bicyclo[1.1.1]pentan-1-yl)-1H-imidazol-2-yl)propan-1-ol]
- Kd (human DLK [1]; [3]): 11 nM
- IC50 (human DLK [2]; [4]): 319 nM

SMILES: Nc1ncc(-c2cn(C34CC(N5CCN(CC(F)(F)F)CC5)(C3)C4)c(C3CC3)n2)cc1OC(F)(F)F [Example 15, 5-(2-cyclopropyl-1-(3-(4-(2,2,2-trifluoroethyl)piperazin-1-yl)bicyclo[1.1.1]pentan-1-yl)-1H-imidazol-4-yl)-3-(trifluoromethoxy)pyridin-2-amine]
- Kd (human DLK [1]; [3]): 18 nM
- IC50 (human DLK [2]; [4]): 540 nM

SMILES: COCCN(C)C12CC(n3cc(-c4cnc(N)c(OC(F)(F)F)c4)nc3C3CC3)(C1)C2 [Example 24, 5-(2-cyclopropyl-1-(3-((2-methoxyethyl)(methyl)amino)bicyo[1.1.1]pentan-1-yl)-1H-imidazol-4-yl)-3-(trifluoromethoxy)pyridin-2-amine]
- Kd (human DLK [1]; [3]): 6.8 nM
- IC50 (human DLK [2]; [4]): 553 nM

SMILES: Nc1ncc(-c2cn(C34CC(C3)C4)c(CO)n2)cc1C(F)(F)F [Example 58, (4-(6-amino-5-(trifluoromethyl)pyridin-3-yl)-1-(bicyclo[1.1.1]pentan-1-yl)-1H-imidazol-2-yl)methanol]
- Kd (human DLK [1]; [3]): 18 nM
- IC50 (human DLK [2]; [4]): 846 nM

SMILES: CN1CCN(C23CC(n4cc(-c5cnc(N)c(OC(F)(F)F)c5)nc4CC4CC4)(C2)C3)CC1 [Example 72, 5-(2-(cyclopropylmethyl)-1-(3-(4-methylpiperazin-1-yl)bicyclo[1.1.1]pentan-1-yl)-1H-imidazol-4-yl)-3-(trifluoromethoxy)pyridin-2-amine]
- Kd (human DLK [1]; [3]): 19 nM
- IC50 (human DLK [2]; [4]): 1160 nM

SMILES: Nc1ncc(-c2cn(C34CC(N5CCOCC5)(C3)C4)c(C3CCCO3)n2)cc1OC(F)(F)F (centres unmarked) [Example 32, 5-(1-(3-morpholinobicyclo[1.1.1]pentan-1-yl)-2-(tetrahydrofuran-2-yl)-1H-imidazol-4-yl)-3-(trifluoromethoxy)pyridin-2-amine]
- Kd (human DLK [1]; [3]): 6.7 nM
- IC50 (human DLK [2]; [4]): 518 nM

SMILES: Nc1ncc(-c2cn(C34CC(N5CCN(CCF)CC5)(C3)C4)c(C3CC3)n2)cc1OC(F)(F)F [Example 17, 5-(2-cyclopropyl-1-(3-(4-(2-fluoroethyl)piperazin-1-yl)bicyclo[1.1.1]pentan-1-yl)-1H-imidazol-4-yl)-3-(trifluoromethoxy)pyridin-2-amine]
- Kd (human DLK [1]; [3]): 6.9 nM
- IC50 (human DLK [2]; [4]): 281 nM

SMILES: Nc1ncc(-c2cn(C34CC(N5CCOCC5)(C3)C4)c(C3COC3)n2)cc1OC(F)(F)F [Example 31, 5-(1-(3-morpholinobicyclo[1.1.1]pentan-1-yl)-2-(oxetan-3-yl)-1H-imidazol-4-yl)-3-(trifluoromethoxy)pyridin-2-amine]
- Kd (human DLK [1]; [3]): 170 nM
- IC50 (human DLK [2]; [4]): 2570 nM

SMILES: CN1CCN(C23CC(n4cc(-c5cnc(N)c(OC(F)(F)F)c5)nc4C4CC4)(C2)C3)CC1=O [Example 22, 4-(3-(4-(6-amino-5-(trifluoromethoxy)pyridin-3-yl)-2-cyclopropyl-1H-imidazol-1-yl)bicyclo[1.1.1]pentan-1-yl)-1-methylpiperazin-2-one]
- Kd (human DLK [1]; [3]): 9.7 nM
- IC50 (human DLK [2]; [4]): 404 nM

SMILES: CCC(O)c1nc(-c2cnc(N)c(C(F)(F)F)c2)cn1C12CC(C1)C2 (centres unmarked) [Example 61, 1-(4-(6-amino-5-(trifluoromethyl)pyridin-3-yl)-1-(bicyclo[1.1.1]pentan-1-yl)-1H-imidazol-2-yl)propan-1-ol]
- Kd (human DLK [1]; [3]): 2.1 nM
- IC50 (human DLK [2]; [4]): 167 nM

SMILES: CCC(C)c1nc(-c2cnc(N)c(OC(F)F)c2)cn1C12CC(N3CCOCC3)(C1)C2 (centres unmarked) [Example 51, 5-(2-(sec-butyl)-1-(3-morpholinobicyclo[1.1.1]pentan-1-yl)-1H-imidazol-4-yl)-3-(difluoromethoxy)pyridin-2-amine]
- Kd (human DLK [1]; [3]): 21 nM
- IC50 (human DLK [2]; [4]): 763 nM

SMILES: N#CC1(c2nc(-c3cnc(N)c(OC(F)(F)F)c3)cn2C23CC(N4CCOCC4)(C2)C3)CC1 [Example 29, 1-(4-(6-amino-5-(trifluoromethoxy)pyridin-3-yl)-1-(3-morpholinobicyclo[1.1.1]pentan-1-yl)-1H-imidazol-2-yl)cyclopropane-1-carbonitrile]
- Kd (human DLK [1]; [3]): 20 nM
- IC50 (human DLK [2]; [4]): 531 nM

SMILES: Nc1ncc(-c2cn(C34CC(N5CCOCC5)(C3)C4)c([C@H](O)C(F)(F)F)n2)cc1OC(F)(F)F (single isomer, unassigned) [Example 8a]
- Kd (human DLK [1]; [3]): 0.36 nM
- IC50 (human DLK [2]; [4]): 24.8 nM

SMILES: Nc1ncc(-c2cn(C34CC(N5CCOCC5)(C3)C4)c(C3CCOC3)n2)cc1OC(F)(F)F (centres unmarked) [Example 30, 5-(1-(3-morpholinobicyclo[1.1.1]pentan-1-yl)-2-(tetrahydrofuran-3-yl)-1H-imidazol-4-yl)-3-(trifluoromethoxy)pyridin-2-amine]
- Kd (human DLK [1]; [3]): 390 nM
- IC50 (human DLK [2]; [4]): 5110 nM

SMILES: Nc1ncc(-c2cn(C34CC(N5CCCCC5)(C3)C4)c(C3CC3)n2)cc1OC(F)(F)F [Example 19, 5-(2-cyclopropyl-1-(3-(piperidin-1-yl)bicyclo[1.1.1]pentan-1-yl)-1H-imidazol-4-yl)-3-(trifluoromethoxy)pyridin-2-amine]
- Kd (human DLK [1]; [3]): 14 nM
- IC50 (human DLK [2]; [4]): 600 nM

SMILES: Nc1ncc(-c2cn(C34CC(N5CCOCC5)(C3)C4)c(C3CCCC3)n2)cc1OC(F)(F)F [Example 44, 5-(2-cyclopentyl-1-(3-morpholinobicyclo[1.1.1]pentan-1-yl)-1H-imidazol-4-yl)-3-(trifluoromethoxy)pyridin-2-amine]
- Kd (human DLK [1]; [3]): 53 nM
- IC50 (human DLK [2]; [4]): 841 nM

SMILES: COCCN(CCOC)C12CC(n3cc(-c4cnc(N)c(OC(F)(F)F)c4)nc3C3CC3)(C1)C2 [Example 25, 5-(1-(3-(bis(2-methoxyethyl)amino)bicyclo[1.1.1]pentan-1-yl)-2-cyclopropyl-1H-imidazol-4-yl)-3-(trifluoromethoxy)pyridin-2-amine]
- Kd (human DLK [1]; [3]): 6.4 nM
- IC50 (human DLK [2]; [4]): 389 nM

SMILES: CC(C)Cc1nc(-c2cnc(N)c(OC(F)(F)F)c2)cn1C12CC(N3CCOCC3)(C1)C2 [Example 45, 5-(2-isobutyl-1-(3-morpholinobicyclo[1.1.1]pentan-1-yl)-1H-imidazol-4-yl)-3-(trifluoromethoxy)pyridin-2-amine]
- Kd (human DLK [1]; [3]): 15 nM
- IC50 (human DLK [2]; [4]): 761 nM

SMILES: CCCN1CCN(C23CC(n4cc(-c5cnc(N)c(OC(F)(F)F)c5)nc4[C@@H](O)C(C)C)(C2)C3)CC1 [Example 10, (S)-1-(4-(6-amino-5-(trifluoromethoxy)pyridin-3-yl)-1-(3-(4-(propyl)piperazin-1-yl)bicyclo[1.1.1]pentan-1-yl)-1H-imidazol-2-yl)-2-methylpropan-1-ol]
- Kd (human DLK [1]; [3]): 0.31 nM
- IC50 (human DLK [2]; [4]): 13.9 nM
